In a melting point compilation (Tetko et al.; mined from patent text by program, amines drawn as free bases though some values may be those of a salt):
Non-standard residues stand in square brackets, D forms with d. Residues, ends and D or L forms follow the SMILES beside them. ξ: configuration not given here. *: point of attachment. Boc = CC(C)(C)OC(=O)*; ξA = CC(N)C(=O)O; NHNH2 = NN*

Compound	melting point
COc1cc(-c2ccc(O)c(C3(C)CCCCC3)c2)cc(CC2SC(N3CCCC3)=NC2=O)c1O (stereo unspecified)	204 to 206 °C
ON=C1CCC2(CC1)Cc1ccccc1C2	120 to 122 °C
COc1cc2c(c(OC)c1)C1CCC3(C)C(=O)CCC3C1CC2 (stereo unspecified)	132 to 133 °C
Cc1ccc(-c2[nH]nc(CO)c2-c2ccc(S(N)(=O)=O)cc2)cc1	130 °C
O=C([C@@H](Cc1ccc(Cl)cc1)NC1CCOCC1)N1CCC(Cn2cncn2)(C2CCCCC2)CC1	75 °C
COC(/C=C/c1cccc(Cl)c1)=N/c1ccc(C(O)c2cncn2Cc2ccc(C#N)cc2)cc1 (stereo unspecified)	192 °C
CCOc1cnccc1C#N	56 to 57 °C
O=C(Cc1ccccc1)Nc1cnc(-c2ccccc2)nc1Cl	169 °C
CCc1nn(C2CCCCC2)c2cc(C(=O)Nc3c(Cl)cncc3Cl)ccc12	124 to 127 °C
CCOC(=O)C1=C(C)Nc2ncnn2C1C (stereo unspecified)	155 to 157 °C
Cc1ccc(-c2cc(C(F)(F)F)nn2-c2ccc(S(N)(=O)=O)c(F)c2)cc1	126 to 128 °C
Fc1ccc2c(c1)nc(/C=C/C1CCCCC1)n2-c1ccccn1	109 to 110 °C
CCOC(=O)c1[nH]c2ccccc2c1Br	150 to 152 °C
CC(=O)NCC=C1CCc2ccc3nc(C)oc3c21	188 to 190 °C
Cc1cc(C(N)=O)ncc1C(c1c(F)ccc(F)c1F)S(=O)(=O)CCC(F)(F)C(F)(F)F (stereo unspecified)	155 to 156 °C
O=C1c2cccc(O)c2C2(OCCS2)c2c(O)cccc21	197 to 199 °C
N#Cc1cc(NC(=O)c2cc3ccccc3s2)ccc1N1CCC(O)CC1	224 to 225 °C
CCNC(=O)Nc1nc2cc(-c3cncnc3)cc(C(=O)NCC)n2n1	317 to 321 °C
O=C(O)[C@@H]1Cc2ccccc2N1c1ccc(Cl)nn1	211 to 212 °C

Compound	melting point
COc1cc(C=CC(=O)Nc2ccccc2C(=O)O)ccc1O	208 °C
N#CC1c2cccc(Br)c2C=CN1C(=O)c1ccccc1 (stereo unspecified)	177 to 178 °C
CCCCCCCCC(CO)CO	48 to 51 °C
Clc1ccc(C2CCc3ccccc3O2)cc1 (stereo unspecified)	76 to 77 °C
COC(=O)c1ccc(-c2nc(-c3ccc4c(c3)C(C)(C)CCC4(C)C)co2)cc1	207 to 208 °C
CC(C)c1cc(Oc2ccccc2)cc(C(C)C)c1N	71 to 72 °C
BrCc1cccc2c(-c3ccc(Br)cc3)onc12	159 to 161 °C
O=C1c2ccccc2C2(c3ccc(Cl)cc3)NCCN12 (stereo unspecified)	166 to 168 °C
NC(=O)C1CCc2cc3c(nc21)CCC3 (stereo unspecified)	188 °C
Cc1cn(-c2cccc(OS(N)(=O)=O)c2)cn1	202 to 204 °C
COC(=O)C1=C(C)NC(C)=C(C(=O)OCCN2CCN(S(=O)(=O)c3ccc(Cl)cc3)CC2)C1c1cccc([N+](=O)[O-])c1 (stereo unspecified)	97 to 105 °C
CCOC(=O)c1ccc2nc3cscc3c(=O)n2c1	175 °C
Cc1cc(OC(F)F)ccc1NC(=O)c1cccc(N)c1C(=O)NC(C)C	148 to 149 °C
CC1=C(C(=O)O)C(c2ccccc2[N+](=O)[O-])C(C(=O)OCCC#N)=C(C)N1 (stereo unspecified)	132 to 134 °C
CC(=O)c1c(C)[nH]c(-c2ccccc2C)c1N	258 °C
CN1C(=O)N(C)C(c2c(C(C)(C)C)cc(O)cc2C(C)(C)C)N(C)C1=O	194 to 196 °C
CCOC(=O)/C(=N\OC1CCS(=O)(=O)C1)c1csc(N)n1 (stereo unspecified)	147 to 148 °C
Nc1ccc(-c2cc(=O)cc(N3CCOCC3)o2)cc1	258 to 260 °C
O=C(Nc1ccc(F)cc1)NC1CCN(C(=O)c2ccc(C(=O)O)cc2)CC1	195 to 198 °C

Compound	melting point
Cn1c(C(F)(F)F)ccc(-c2cc3[nH]c(=O)oc3cc2Cl)c1=O	263 to 265 °C
N#Cc1nn(-c2c(Cl)cc(C(F)(F)F)cc2Cl)cc1C1CC(=O)C1	127 °C
NC(=O)CN1C(=O)C[C@@H]2CCCC[C@@H]21 (relative stereo)	145 to 146 °C
CCCc1nn(C)c2c(=O)[nH]c(-c3cc(C(O)CN4CCNCC4)ccc3OCC)nc12 (stereo unspecified)	130 to 140 °C
CCCS(=O)(=O)c1cc([C@H]2C[C@H](c3cc(OC)c(OC)c(OC)c3)CO2)cc(OC)c1OCc1ccccc1 (relative stereo)	176 to 177 °C
CC(=CC(=O)c1cccnc1)NCC(O)COc1ccc(NC(=O)NC2CCCCC2)cc1 (stereo unspecified)	168 °C
N#Cc1ccc(C(OCC2OC(n3ccc(=O)[nH]c3=O)CC2O)(c2ccccc2)c2ccccc2)cc1 (stereo unspecified)	92 to 95 °C
CCCCCCC(=N)NC(=S)Nc1ccc(F)cc1	75 to 76 °C
Cc1sc2c(c1C(=O)c1ccc([N+](=O)[O-])cc1)CCC2C(=O)O (stereo unspecified)	156 to 158 °C
N#CC1(c2ccccc2)CCN(C(=O)CC(c2ccccc2)(c2ccccc2)c2ccccc2)CC1	188 to 190 °C
Cc1cc(-n2cnn(Cc3ccc(F)cc3)c2=O)sc1C(=O)NCc1cnn(C)c1	168 to 170 °C
N#Cc1cc(C(=O)c2cccs2)ccc1O	216 °C
Cn1c(=O)cc(-c2cccc(Cl)c2)c2cc(C(=O)c3ccc(I)cc3)ccc21	184 °C
CCCCCCCCCCC1COC(=O)N1C(C)=O (stereo unspecified)	51 to 53 °C
CC(OC(=O)Nc1ccc(-c2ncn(-c3ccc(C(F)(F)F)cc3)n2)cc1)c1ccc(C(F)(F)F)cc1 (stereo unspecified)	156 to 158 °C
O=C(Nc1nccs1)c1nc(-c2cccc3ccccc23)[nH]c1-c1ccc(C(F)(F)F)cc1	222 to 223 °C
CCCOc1ccccc1Nc1ncc(C(=O)OCC)c(=O)[nH]1	198 to 200 °C
Nc1cccc(C=C2c3ccccc3CCc3ccccc32)c1	204 °C
c1ccc(CC2CCN2C(c2ccccc2)c2ccccc2)cc1 (stereo unspecified)	87.5 °C

Now from value to molecule:

melting point	Compound
194 to 197 °C	Nc1ncnc2c1ncn2C[C@@H](CF)OCP(=O)(O)O
199 to 201 °C	Cc1cc(C)cc(Sc2[nH]c(C)nc2CO)c1
> 270 °C	CCOc1cc(NC(=O)NS(=O)(=O)c2ccc(C)cc2)cc(OCC)n1
194 to 197 °C	Cn1ncc(C(=O)N2CCOCC2)c1C(=O)Nc1ccn2nc(N3CCCC3)nc2c1
88 °C	COC(=O)N1C2CC3CC(C2)CC1C3
187 to 189 °C	COc1ccc(-c2ccc(C(=O)N3Cc4cccn4Cc4ccccc43)cc2)cc1
169 to 170 °C	COc1ccc(C2=NN(C3CCN(C(=O)CS(C)(=O)=O)CC3)C(=O)[C@@H]3CC=CC[C@H]23)cc1OC
108 °C	O=C(CCc1ccncc1)NC(Cc1c[nH]c2ccccc12)C(=O)CCc1cc(C(F)(F)F)cc(C(F)(F)F)c1 (stereo unspecified)
155 to 156 °C	Cn1c(=O)ccc2cnc(NCCc3ccccn3)nc21
70 to 74 °C	O=C(Nc1nccs1)C(CC1CCCC1)c1ccc(NS(=O)(=O)C(F)(F)F)cc1 (stereo unspecified)
147 to 150 °C	Cc1c(I)c(=O)n(-c2cc(C(=O)OC(C)C)c(Cl)cc2F)c(=O)n1C
103 to 105 °C	O=C(/C=C/c1ccc(O)c(OC(F)(F)F)c1)/C=C/c1ccc(O)c(OC(F)(F)F)c1
161 to 162 °C	CCOC(=O)c1cc2c(C)c(C)cc(NS(=O)(=O)c3cccs3)c2[nH]1
172 to 173 °C	Cc1c(Cc2cccc(C(F)(F)F)c2)sc2c(-c3cccc(C(=O)O)c3)cccc12
94 to 95 °C	CC(C)CC(O)(Cn1cncn1)c1ccccc1 (stereo unspecified)
222 to 223 °C	Oc1c(Br)cc(-c2c3ccccc3c(Cl)c3sc4ccccc4c23)cc1Br
177 to 179 °C	CC(=O)ON=c1c2nccc3cccc(c32)n2cccc12
106 to 107 °C	N#Cc1ccc2cc(CCCCCc3cc4ccc(C#N)cc4o3)oc2c1
93 °C	COC(=O)c1cc(-c2ccc(C)c(C)c2)n(Cc2ccc(F)cc2)n1
222 to 223 °C	Cc1nc(C)c(Cl)c(NCc2cccc(Oc3ccc4ncc([N+](=O)[O-])n4n3)c2)n1
130 °C	CSc1ccc(C2=NC[C@@H](O)[C@H](c3ccccc3)O2)cc1 (racemic)
179 to 180 °C	O=C(O)c1ccc(OCc2ccccc2)cc1O

melting point	Compound
185 to 186 °C	COc1cccc(Cc2nnc(SC)[nH]c2=O)c1
232 to 235 °C	COc1ccc(C(=O)c2[nH]c3ccc(Cl)cc3c2CC(=O)O)cc1
100 to 102 °C	O=C(c1cccnc1)N1N=CCC1c1ccccc1 (stereo unspecified)
80 to 83 °C	CCOC(=O)c1sc2cc(COS(C)(=O)=O)ccc2c1S(=O)c1cccc(OC)c1 (stereo unspecified)
> 300 °C	CC1(C)C(=O)Nc2cc3[nH]c(-c4cnsn4)nc3cc21
221 to 223 °C	CC(NC(=O)CNC(=O)CNC(=O)CNC(=O)OC(C)(C)C)C(=O)NCC(=O)NN (stereo unspecified) (Boc-GGG[ξA]G-NHNH2)
107 to 111 °C	Cc1cc(Oc2cc(C(F)(F)F)ccn2)ccc1OCCNc1ncnc2scnc12
180 to 207 °C	N#Cc1c(N)ccc(C(=O)CBr)c1Cl
142 to 143 °C	CCOC(=O)c1ccc(-c2cnc(-c3ccc(C(F)(F)F)cc3)o2)cc1
147 to 148 °C	Cc1ccc(-c2cc(F)c(F)cc2-c2ccc(S(C)(=O)=O)cc2)cc1
302 to 303 °C	O=C1C(O)=C(c2ccc3ccccc3c2)C(=O)C(O)=C1c1ccc(Cl)cc1
240 °C	O=C(C1CCCCC1)C1CCN(C(=O)c2cc(O)c(O)cc2[N+](=O)[O-])CC1
263 to 265 °C	O=C(O)c1ccc2c(c1)S(=O)(=O)NCN2C1CC1
72 to 74 °C	COC(=O)C(C)c1ccc2cc(OC(=O)CO[N+](=O)[O-])ccc2c1 (stereo unspecified)
163 to 164 °C	Cc1oc(-c2ccc(F)cc2)nc1COc1cccc(Cn2oc(=O)[nH]c2=O)c1
172 to 173 °C	COc1ccc2cnc(Nc3ccccc3)nc2c1C(C)C
110 to 111 °C	CC(C)(c1ccc(OCCO)cc1)c1ccc(OCCO)cc1
88 to 89 °C	CCCn1c(CCO)nc(C(C)C)c1Sc1cc(Cl)cc(Cl)c1
86 °C	C1COCCN2CCSCCSCCN(CCO1)CCSCCSCC2
233 to 235 °C	O=C1NC(=O)C(=Cc2cccc(OCc3ccccc3)c2)S1
299 to 301 °C	CNn1cc(C(=O)O)c(=O)c2cc(F)c(N3CCN(C)CC3)cc21
196 to 198 °C	CC1(C)OC(=O)Nc2ccc(/C=C/C(N)=O)cc21
